Source: patent publication US20100063085A1, “METHOD OF TREATING LEARNING IMPAIRMENT IN DOWN'S SYNDROME SUBJECTS” (University Court of The University of Dundee, priority 2008, published 2010)
Read-outs that look alike come from different tables or passages of the source.

Assays:
Format in all cases: biochemical
PHK = PHK 33P kinase assay
Method: (§1) All assays (25.5 μl) were carried out at room temperature (21° C.) and were linear with respect to time and enzyme concentrations under the conditions used. Assays were performed for 30 minutes except assays for LCK and PKB which were performed for 15 minutes using Multidrop Micro reagent dispensers (Thermo Electron Corporation, Waltham, Mass. 02454, USA) in a 96-well format. The concentration of […] [γ-^33P] ATP (800 cpm/pmol) in the assays was one of three concentrations (5, 20 or 50 μM) in order to be at or below Km for ATP for the enzyme. Assays were initiated with MgATP and stopped by addition of 5 μl of 0.5M orthophosphoric acid. Assays were then harvested onto P81 filterplates using a unifilter harvester (PerkinElmer, Boston, Mass. 02118, USA), with a wash buffer of 50 mM orthophosphoric acid. Filterplates were then air dried overnight. 10 μl of Microscint O was added per well prior to counting for radioactivity.
(§2) MKK1, JNK/SAPK1c, SAPK2a/p38, SAPK2b/p38β2, SAPK3/p38γ, SAPK4/p38δ, MAPK2/ERK2, MAPKAP-K1β, MAPKAP-K2, MSK1, PRAK, PKA, PKCα, PDK1, SGK, p70S6K, GSK3β, ROCK-II, PRK2, AMPK, CHK1, CHK2, CK2, PHK, LCK, were assayed according to Davies et al., (Davies, S. P., Reddy, H., Caivano, M. and Cohen, P. Biochem. J. 351, 95-105, 2000.
(§3) CSK and CDK2/cyclinA, were assayed according to Bain et al. (Bain J, McLauchlan H, Elliott M, Cohen P. Biochem J. 371, 199-204, 2003., except that ATP concentrations were either 5, 20 or 50 micromolar so that they were at or below the Km for ATP. The ATP concentrations used were as follows, 5 μM for assays of MKK1, SAPK3, SAPK4, GSK3β, PRK2 CK2 20 μm for assays of JNK, SAPK2β, MAPKAP-K2, MSK1, PRAK, PKA, […], PDK1, SGK, p70S6K, ROCK-II, CHK1, CHK2, CSK, CDK2, and 50 μM for assays of SAPK2a, MAPK2/ERK2, AMPK, LCK, PHK and MAPKAP-K1β.

GSK3b = GSK3b (Homo sapiens, UniProt P49841); assay: GSK3b 33P kinase assay; settings: read-out: GSK3b activity as percentage of control without inhibitor
GSK3b, sequence (P49841 whole entry, species assumed): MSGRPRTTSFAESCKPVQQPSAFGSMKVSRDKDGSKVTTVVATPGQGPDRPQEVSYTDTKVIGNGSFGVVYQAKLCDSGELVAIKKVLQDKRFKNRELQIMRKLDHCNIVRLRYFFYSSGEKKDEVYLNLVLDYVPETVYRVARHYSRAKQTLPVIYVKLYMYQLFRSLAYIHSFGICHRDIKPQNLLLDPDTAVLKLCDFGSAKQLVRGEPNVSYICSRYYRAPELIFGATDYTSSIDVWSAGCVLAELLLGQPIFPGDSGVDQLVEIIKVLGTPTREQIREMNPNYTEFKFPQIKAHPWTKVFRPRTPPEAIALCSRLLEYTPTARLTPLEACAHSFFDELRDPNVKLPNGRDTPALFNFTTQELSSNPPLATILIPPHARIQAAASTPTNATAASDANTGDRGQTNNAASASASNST
Method: as §1, §2, §3

DYRK1a = target: T1, DYRK1a (Homo sapiens, UniProt Q13627); assay: biochemical; settings: for remaining activity at 1 µM / remaining activity at 10 µM: read-out: DYRK1a activity as percentage of control without inhibitor
T1 construct: made in house
Method: DYRK1A (5-20 mU of diluted in 50 mM Tris pH 7.5, 0.1 mM EGTA) was assayed against Woodtide ([…]) in a final volume of 25.5 μl containing 50 mM Tris pH 7.5, 0.1 mM EGTA, 350 uM substrate peptide, 10 mM magnesium acetate and 0.5 μl inhibitor and incubated at room temperature for 5 mins, followed by the addition of 0.05 mM [33P-gamma-ATP] (50-1000 cpm/pmole) and incubated for 30 mins at room temperature. Assays were stopped by addition of 5 μl of 0.5 M (3%) orthophosphoric acid then harvested onto P81 Unifilter plates with a wash buffer of 50 mM orthophosphoric acid. Filterplates were then air dried overnight. 10 μl of Microscint O was added per well prior to counting for radioactivity.

Lck = Lck (Homo sapiens, UniProt P06239); assay: Lck 33P kinase assay; settings: read-out: Lck activity as percentage of control without inhibitor; for remaining activity at 1 µM: inhibitor 1 μM
Lck, sequence (P06239 whole entry, species assumed): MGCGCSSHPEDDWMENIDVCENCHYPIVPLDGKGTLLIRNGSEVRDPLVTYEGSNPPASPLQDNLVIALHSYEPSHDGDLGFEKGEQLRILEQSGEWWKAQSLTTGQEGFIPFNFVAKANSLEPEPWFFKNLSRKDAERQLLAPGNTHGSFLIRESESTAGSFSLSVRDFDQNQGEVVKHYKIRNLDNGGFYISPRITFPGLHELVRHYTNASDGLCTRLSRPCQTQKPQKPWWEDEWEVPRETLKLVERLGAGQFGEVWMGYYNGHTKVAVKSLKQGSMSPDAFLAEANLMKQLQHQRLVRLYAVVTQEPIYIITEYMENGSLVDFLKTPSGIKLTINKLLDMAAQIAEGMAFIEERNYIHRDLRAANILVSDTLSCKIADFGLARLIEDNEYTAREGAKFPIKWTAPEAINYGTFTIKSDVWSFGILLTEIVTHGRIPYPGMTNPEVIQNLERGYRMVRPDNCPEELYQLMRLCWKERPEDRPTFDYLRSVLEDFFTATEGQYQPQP
Method: as §1, with “Assays” for “All assays (25.5 μl) were carried out at room temperature (21° C.) and were linear with respect to time and enzyme concentrations under the conditions used. Assays”
as §2, §3

SAPK2b/p38β2 = SAPK2b/p38β2 (Homo sapiens, UniProt Q15759); assay: SAPK2b/p38β2 33P kinase assay; settings: read-out: SAPK2b/p38β2 activity as percentage of control without inhibitor; for remaining activity at 1 µM: inhibitor 1 μM
SAPK2b/p38β2, sequence (Q15759 whole entry): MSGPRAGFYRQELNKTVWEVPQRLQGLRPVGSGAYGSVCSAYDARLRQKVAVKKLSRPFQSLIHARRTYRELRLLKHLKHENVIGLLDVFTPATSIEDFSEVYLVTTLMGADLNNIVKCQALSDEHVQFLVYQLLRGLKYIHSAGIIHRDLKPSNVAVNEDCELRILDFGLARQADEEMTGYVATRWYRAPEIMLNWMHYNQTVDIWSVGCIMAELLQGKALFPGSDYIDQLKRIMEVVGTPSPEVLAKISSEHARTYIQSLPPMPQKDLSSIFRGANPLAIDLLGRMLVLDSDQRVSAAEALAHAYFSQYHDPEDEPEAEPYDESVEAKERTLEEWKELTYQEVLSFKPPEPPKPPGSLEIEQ
Method: as §1, with “Assays” for “All assays (25.5 μl) were carried out at room temperature (21° C.) and were linear with respect to time and enzyme concentrations under the conditions used. Assays”
as §2, §3

CHK1 = target: T2, CHK1 (Homo sapiens, UniProt O14757); assay: CHK1 33P kinase assay; settings: read-out: CHK1 activity as percentage of control without inhibitor
T2 sequence (O14757 1-476): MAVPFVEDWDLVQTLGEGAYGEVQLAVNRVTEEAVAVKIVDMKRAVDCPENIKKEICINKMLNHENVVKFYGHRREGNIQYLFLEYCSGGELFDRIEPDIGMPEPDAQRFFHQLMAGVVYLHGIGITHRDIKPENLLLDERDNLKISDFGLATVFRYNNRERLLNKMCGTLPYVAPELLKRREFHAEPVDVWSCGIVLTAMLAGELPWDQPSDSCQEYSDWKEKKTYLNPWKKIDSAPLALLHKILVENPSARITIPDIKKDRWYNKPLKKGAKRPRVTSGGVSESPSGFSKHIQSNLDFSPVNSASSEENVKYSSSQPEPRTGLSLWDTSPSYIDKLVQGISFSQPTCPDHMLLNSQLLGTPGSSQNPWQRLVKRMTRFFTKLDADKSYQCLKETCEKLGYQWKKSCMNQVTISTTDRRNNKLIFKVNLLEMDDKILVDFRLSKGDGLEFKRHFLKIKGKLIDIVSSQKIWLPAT
Method: as §1, §2, §3

CDK2/cyclin A = CDK2/cyclin A (Homo sapiens, UniProt P24941); assay: CDK2/cyclin A 33P kinase assay; settings: read-out: CDK2/cyclin A activity as percentage of control without inhibitor
Method: as §1, §3

AMPK = AMPK 33P kinase assay
Method: as §1, §2, §3

ROCK-II = ROCK-II (Homo sapiens, UniProt O75116); assay: ROCK-II 33P kinase assay; settings: read-out: ROCK-II activity as percentage of control without inhibitor
ROCK-II, sequence (O75116 whole entry, species assumed): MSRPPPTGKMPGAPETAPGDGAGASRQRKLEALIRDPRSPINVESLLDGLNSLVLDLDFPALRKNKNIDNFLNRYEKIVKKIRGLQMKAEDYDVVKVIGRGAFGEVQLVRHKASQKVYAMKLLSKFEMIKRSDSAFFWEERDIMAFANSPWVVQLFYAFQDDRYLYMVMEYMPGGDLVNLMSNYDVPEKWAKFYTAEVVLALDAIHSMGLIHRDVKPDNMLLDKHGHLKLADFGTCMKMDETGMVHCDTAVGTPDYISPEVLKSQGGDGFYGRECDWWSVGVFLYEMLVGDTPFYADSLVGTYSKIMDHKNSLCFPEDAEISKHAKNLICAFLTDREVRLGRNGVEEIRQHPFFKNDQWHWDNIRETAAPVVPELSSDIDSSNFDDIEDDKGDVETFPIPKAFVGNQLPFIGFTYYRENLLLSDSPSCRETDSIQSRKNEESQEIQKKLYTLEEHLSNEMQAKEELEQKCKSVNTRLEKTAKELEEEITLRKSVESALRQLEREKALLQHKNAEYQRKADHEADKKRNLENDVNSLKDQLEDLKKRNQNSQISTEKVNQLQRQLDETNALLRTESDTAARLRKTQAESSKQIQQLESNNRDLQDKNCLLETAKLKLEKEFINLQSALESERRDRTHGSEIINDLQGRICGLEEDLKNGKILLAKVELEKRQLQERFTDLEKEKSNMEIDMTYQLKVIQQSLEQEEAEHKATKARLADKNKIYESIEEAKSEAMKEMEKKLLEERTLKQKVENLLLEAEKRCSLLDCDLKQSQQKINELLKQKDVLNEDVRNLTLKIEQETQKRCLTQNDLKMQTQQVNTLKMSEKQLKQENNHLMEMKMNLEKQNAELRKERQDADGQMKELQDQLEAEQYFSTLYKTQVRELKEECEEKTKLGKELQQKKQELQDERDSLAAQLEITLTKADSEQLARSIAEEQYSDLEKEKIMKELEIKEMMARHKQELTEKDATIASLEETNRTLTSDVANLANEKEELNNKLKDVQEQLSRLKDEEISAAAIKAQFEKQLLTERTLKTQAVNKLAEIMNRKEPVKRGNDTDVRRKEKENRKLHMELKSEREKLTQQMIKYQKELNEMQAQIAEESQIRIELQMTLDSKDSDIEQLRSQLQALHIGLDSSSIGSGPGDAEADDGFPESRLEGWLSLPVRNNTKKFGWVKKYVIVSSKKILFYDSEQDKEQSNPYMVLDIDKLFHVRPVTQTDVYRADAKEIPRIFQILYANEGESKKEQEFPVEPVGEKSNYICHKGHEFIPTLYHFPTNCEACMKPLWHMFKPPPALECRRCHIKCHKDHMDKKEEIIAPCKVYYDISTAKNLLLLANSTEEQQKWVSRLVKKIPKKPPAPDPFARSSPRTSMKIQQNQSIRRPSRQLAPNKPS
Method: as §1, §2, §3

| SMILES | PHK activity as percentage of control without inhibitor (PHK; inhibitor 1 μM) [%] | PHK activity as percentage of control without inhibitor (PHK; inhibitor 10 μM) [%] | remaining activity at 1 µM (GSK3b) [%] | remaining activity at 10 µM (GSK3b) [%] | remaining activity at 1 µM (DYRK1a; inhibitor 1 μM) [%] | remaining activity at 10 µM (DYRK1a; inhibitor 10 μM) [%] | remaining activity at 1 µM (Lck) [%] | remaining activity at 10 µM (Lck; inhibitor 10 μM) [%] | remaining activity at 1 µM (SAPK2b/p38β2) [%] | remaining activity at 10 µM (SAPK2b/p38β2; inhibitor 10 μM) [%] | remaining activity at 1 µM (CHK1) [%] | remaining activity at 10 µM (CHK1) [%] | remaining activity at 1 µM (CDK2/cyclin A) [%] | remaining activity at 10 µM (CDK2/cyclin A) [%] | AMPK activity as percentage of control without inhibitor (AMPK; inhibitor 1 μM) [%] | AMPK activity as percentage of control without inhibitor (AMPK; inhibitor 10 μM) [%] | remaining activity at 1 µM (ROCK-II; inhibitor 1 μM) [%] | remaining activity at 10 µM (ROCK-II; inhibitor 10 μM) [%] | other results |
| --- | --- | --- | --- | --- | --- | --- | --- | --- | --- | --- | --- | --- | --- | --- | --- | --- | --- | --- | --- |
| COc1ccc2c3c([nH]c2c1)C(C)=NCC3 [Harmaline] | 73 | 88 | 77 | 82 | 78 | 8 | 77 | 87 | 91 | 93 | 78 | 67 | 99 | 98 | 97 | 83 | 99 | 81 |  |
| CC1=NCCc2c1[nH]c1cc(O)ccc21 [Harmalol] | 101 | 63 |  |  | 25 | 3 | 85 | 68 | 88 | 79 |  |  |  |  | 92 | 52 | 96 | 81 | remaining activity at 1 µM (GSK3b; inhibitor 1 μM): 90%; remaining activity at 10 µM (GSK3b; inhibitor 10 μM): 73%; remaining activity at 1 µM (CHK1; inhibitor 1 μM): 93%; remaining activity at 10 µM (CHK1; inhibitor 10 μM): 81%; remaining activity at 1 µM (CDK2/cyclin A; inhibitor 1 μM): 97%; remaining activity at 10 µM (CDK2/cyclin A; inhibitor 10 μM): 77% |
| COc1ccc2c(c1)[nH]c1c(C)nccc12 [Harmine] | 103 | 82 | 82 | 72 |  |  |  |  |  |  | 86 | 86 | 98 | 62 | 98 | 103 |  |  | inhibition of DYRK1a, result in words (DYRK1a): very potent and specific inhibitor of DYRK1a; remaining activity at 1 µM (DYRK1a): 4%; remaining activity at 10 µM (DYRK1a): 1%; remaining activity at 10 µM (Lck): 91%; remaining activity at 10 µM (SAPK2b/p38β2): 87%; remaining activity at 1 µM (ROCK-II): 84%; remaining activity at 10 µM (ROCK-II): 61% |
